The CheMixHub viscosity set
± gives the uncertainty stated by the source.

Assay: xn = mol fraction of the nth substance listed

Oc1ccccc1 + C1CCCCC1
viscosity [mPa·s], 303.15 K
Conditions | x2 = 0.0815 | x2 = 0.2049 | x2 = 0.2824 | x2 = 0.4033 | x2 = 0.501 | x2 = 0.5012 | x2 = 0.5905 | x2 = 0.7019 | x2 = 0.7969 | x2 = 0.8953
101 kPa | 5.517 ± 0.083 | 3.87 ± 0.058 | 3.177 ± 0.048 | 2.326 ± 0.035 | 1.864 ± 0.028 | – | 1.552 ± 0.024 | 1.255 ± 0.019 | 1.066 ± 0.016 | 0.898 ± 0.014
101.33 kPa | 5.517 ± 0.15 | 3.87 ± 0.1 | 3.177 ± 0.083 | 2.326 ± 0.061 | – | 1.864 ± 0.048 | 1.552 ± 0.04 | 1.255 ± 0.033 | 1.066 ± 0.028 | 0.898 ± 0.023

COC(=O)OC + C1CCCCC1
viscosity [mPa·s], 101.33 kPa
Conditions | x1 = 0.101 | x1 = 0.1993 | x1 = 0.3026 | x1 = 0.3999 | x1 = 0.5 | x1 = 0.5996 | x1 = 0.7039 | x1 = 0.8005 | x1 = 0.9028 | x1 = 0.9031
298.15 K | 0.686 ± 0.018 | 0.616 ± 0.017 | – | 0.535 ± 0.015 | 0.52 ± 0.015 | 0.507 ± 0.014 | 0.499 ± 0.014 | 0.502 ± 0.015 | 0.515 ± 0.015 | –
303.15 K | 0.636 ± 0.017 | 0.573 ± 0.016 | 0.533 ± 0.015 | 0.5 ± 0.014 | 0.485 ± 0.014 | 0.475 ± 0.014 | 0.47 ± 0.014 | 0.472 ± 0.014 | 0.491 ± 0.014 | –
308.15 K | 0.59 ± 0.016 | 0.535 ± 0.015 | 0.498 ± 0.014 | 0.463 ± 0.013 | 0.455 ± 0.013 | 0.445 ± 0.013 | 0.442 ± 0.013 | 0.444 ± 0.013 | – | 0.457 ± 0.014

COCCOCCOC + CO
viscosity [mPa·s], 100 kPa
Conditions | 293.15 K | 298.15 K | 303.15 K
x2 = 0.056 | 1.064 ± 0.043 | 0.984 ± 0.04 | 0.903 ± 0.037
x2 = 0.1076 | 1.05 ± 0.043 | 0.97 ± 0.039 | 0.89 ± 0.036
x2 = 0.202 | 1.015 ± 0.041 | 0.94 ± 0.038 | 0.863 ± 0.035
x2 = 0.2929 | 0.99 ± 0.04 | 0.916 ± 0.037 | 0.84 ± 0.034
x2 = 0.3965 | 0.951 ± 0.039 | 0.882 ± 0.036 | 0.808 ± 0.033
x2 = 0.4979 | 0.909 ± 0.037 | 0.843 ± 0.034 | 0.775 ± 0.031
x2 = 0.5993 | 0.863 ± 0.035 | 0.8 ± 0.032 | 0.735 ± 0.03
x2 = 0.6891 | 0.814 ± 0.033 | 0.756 ± 0.031 | 0.693 ± 0.028
x2 = 0.7967 | 0.747 ± 0.03 | 0.697 ± 0.028 | 0.641 ± 0.026
x2 = 0.8412 | 0.718 ± 0.029 | 0.669 ± 0.027 | 0.615 ± 0.025
x2 = 0.8996 | 0.674 ± 0.027 | 0.629 ± 0.025 | 0.578 ± 0.023
x2 = 0.948 | 0.637 ± 0.026 | 0.595 ± 0.024 | 0.546 ± 0.022

CNc1ccccc1 + O=[N+]([O-])c1ccccc1
Conditions | viscosity [mPa·s]
303.15 K, 101.3 kPa, x1 = 0.5 | 1.52 ± 0.04

COCCOCCOC + CCCCCCCCCCCCCCCC
viscosity [mPa·s], 101.33 kPa
Conditions | x1 = 0.1013 | x1 = 0.2067 | x1 = 0.3071 | x1 = 0.403 | x1 = 0.5078 | x1 = 0.6013 | x1 = 0.7004 | x1 = 0.7997 | x1 = 0.9021
298.15 K | 2.629 ± 0.06 | 2.359 ± 0.054 | 2.101 ± 0.049 | 1.9 ± 0.044 | 1.721 ± 0.041 | 1.568 ± 0.037 | 1.4 ± 0.034 | 1.262 ± 0.031 | 1.106 ± 0.027
308.15 K | 2.107 ± 0.049 | 1.885 ± 0.044 | 1.712 ± 0.04 | 1.552 ± 0.037 | 1.414 ± 0.034 | 1.29 ± 0.031 | 1.173 ± 0.029 | 1.058 ± 0.026 | 0.934 ± 0.023
318.15 K | 1.69 ± 0.04 | 1.515 ± 0.036 | 1.385 ± 0.033 | 1.288 ± 0.031 | 1.178 ± 0.029 | 1.08 ± 0.027 | 0.984 ± 0.025 | 0.89 ± 0.023 | 0.799 ± 0.021
